Data from ChEMBL document CHEMBL3994674, “Toward Resolving the Resveratrol Conundrum: Synthesis and in Vivo Pharmacokinetic Evaluation of BCP-Resveratrol” (ACS Med Chem Lett, 2017).
Values after ≈ are worked out from the molar mass of the structure shown.

Key:
[1] = test system: MDA-MB-231; assay: Cytotoxicity against human MDA-MB-231 cells assessed as growth inhibition after 72 hrs by CellTitre-Glo luminescent assay; format: functional; settings: MDA-MB-231, 72 h
[2] = test system: MIA PaCa-2; assay: Cytotoxicity against human MIAPaCa2 cells assessed as growth inhibition after 72 hrs by CellTitre-Glo luminescent assay; format: functional; settings: MIA PaCa-2, 72 h
[3] = test system: SU-DHL10; assay: Cytotoxicity against human SU-DHL10 cells assessed as growth inhibition after 72 hrs by CellTitre-Glo luminescent assay; format: functional; settings: SU-DHL10, 72 h
[4] = Drug level in human hepatocytes treated with resveratrol at 5 uM by LC-MS/MS analysis; format: ADME, cell-based, Hepatocyte
[5] = Thermodynamic solubility in pH 7.4 PBS at 10 mg/ml after 1 hr by LC-Ms/MS based shake flask method; format: physicochemical; settings: read-out: Therm_solubility
[6] = Octanol/phosphate buffer partition co-efficient, log D of the compound at 75 uM at pH 7.4 after 2 hrs by LC-Ms/MS based shake-flask method; format: physicochemical
[7] = test system: MDA-MB-231; assay: Cytotoxicity against human MDA-MB-231 cells assessed as growth inhibition at 30 uM after 72 hrs by CellTitre-Glo luminescent assay relative to control; format: functional; settings: MDA-MB-231, 72 h, read-out: GI
[8] = test system: MIA PaCa-2; assay: Cytotoxicity against human MIAPaCa2 cells assessed as growth inhibition at 30 uM after 72 hrs by CellTitre-Glo luminescent assay relative to control; format: functional; settings: MIA PaCa-2, 72 h, read-out: GI
[9] = test system: SU-DHL10; assay: Cytotoxicity against human SU-DHL10 cells assessed as growth inhibition at 30 uM after 72 hrs by CellTitre-Glo luminescent assay relative to control; format: functional; settings: SU-DHL10, 72 h, read-out: GI
[10] = Cmax in Sprague-Dawley rat at 20 mg/kg, po administered as single dose via gavage after 5 mins by HPLC-MS analysis; format: ADME, organism-based; parameters: dose 20 mg/kg, route oral; settings: in vivo
[11] = Tmax in Sprague-Dawley rat at 20 mg/kg, po administered as single dose via gavage by HPLC-MS analysis; format: ADME, organism-based; settings: in vivo
[12] = AUC (0 to last) in Sprague-Dawley rat at 20 mg/kg, po administered as single dose via gavage after 4 hrs by HPLC-MS analysis; format: ADME, organism-based; parameters: dose 20 mg/kg, route oral, time 0 - last; settings: in vivo
[13] = Half life in Sprague-Dawley rat at 20 mg/kg, po administered as single dose via gavage by HPLC-MS analysis; format: ADME, organism-based; settings: in vivo
[14] = Apparent clearance in Sprague-Dawley rat at 20 mg/kg, po administered as single dose via gavage by HPLC-MS analysis; format: ADME, organism-based; settings: in vivo
[15] = Plasma concentration in Sprague-Dawley rat at 20 mg/kg, po administered as single dose via gavage up to 4 hrs by HPLC-MS analysis; format: ADME, organism-based
[16] = Half life in human hepatocytes at 5 uM by LC-MS/MS analysis; format: ADME, cell-based, Hepatocyte
[17] = Apparent intrinsic clearance in human hepatocytes assessed per million cells at 5 uM by LC-MS/MS analysis; format: ADME, cell-based, Hepatocyte
[18] = Half life in rat hepatocytes at 5 uM by LC-MS/MS analysis; format: ADME, cell-based, Hepatocyte
[19] = Apparent intrinsic clearance in rat hepatocytes assessed per million cells at 5 uM by LC-MS/MS analysis; format: ADME, cell-based, Hepatocyte
[20] = Cmax in CD rat at 50 mg/kg/day, po administered via gavage every 24 hrs for 14 consecutive days measured on day 1 post dose by HPLC-MS analysis; format: ADME, organism-based; parameters: dose 50 mg/kg/day, route oral; settings: in vivo
[21] = Cmax in CD rat at 50 mg/kg/day, po administered via gavage every 24 hrs for 14 consecutive days measured on day 14 post dose by HPLC-MS analysis; format: ADME, organism-based; parameters: dose 50 mg/kg/day, route oral; settings: in vivo
[22] = Cmax in Wistar rat at 20 mg/kg, po by HPLC-MS analysis; format: ADME, organism-based; parameters: dose 20 mg/kg, route oral; settings: in vivo
[23] = Tmax in Wistar rat at 20 mg/kg, po by HPLC-MS analysis; format: ADME, organism-based; settings: in vivo
[24] = AUC (0 to last) in Wistar rat at 20 mg/kg, po by HPLC-MS analysis; format: ADME, organism-based; parameters: dose 20 mg/kg, time 0 - last, route oral; settings: in vivo
[25] = Half life in Wistar rat at 20 mg/kg, po by HPLC-MS analysis; format: ADME, organism-based; settings: in vivo
[26] = Apparent clearance in Wistar rat at 20 mg/kg, po by HPLC-MS analysis; format: ADME, organism-based; settings: in vivo
[27] = Drug metabolism in human hepatocytes assessed as resveratrol-glucuronide formation at 5 uM by LC-MS/MS analysis; format: ADME, cell-based, Hepatocyte
[28] = Drug metabolism in human hepatocytes assessed as resveratrol-sulfate formation at 5 uM by LC-MS/MS analysis; format: ADME, cell-based, Hepatocyte

Row | solubility thermodynamic at 1 h [5] | logD at 2 h, 75 µM [6] | half-life at 5 µM [16] | CLH(app) [17] | half-life at 5 µM [18] | CLH(app) [19] | Compound | Drug metabolism [4] | inhibition of growth at 30 µM [7] | inhibition of growth at 30 µM [8] | inhibition of growth at 30 µM [9] | further results
1 |  |  |  |  |  |  | COc1ccc(C[C@H](N)C(=O)N[C@H]2[C@@H](O)[C@H](n3cnc4c(N(C)C)ncnc43)O[C@@H]2CO)cc1 [PUROMYCIN] |  |  |  |  | CC50 [1]: 480 nM; CC50 [2]: 200 nM; CC50 [3]: 110 nM
2 |  |  |  |  |  |  | O=C(O)[C@H]1O[C@@H](Oc2ccc(/C=C/c3cc(O)cc(O)c3)cc2)[C@H](O)[C@@H](O)[C@@H]1O | Metabolite_Detected |  |  |  | 
3 |  |  |  |  |  |  | O=S(=O)(O)Oc1ccc(/C=C/c2cc(O)cc(O)c2)cc1 | Metabolite_Detected |  |  |  | 
4 | 619 µg/mL (≈ 2840 µM) | 1.9 | 90.4 min | 7.7 µL/min | 24.2 min | 57.4 µL/min | Oc1cc(O)cc(/C=C/C23CC(O)(C2)C3)c1 |  | 22% | 30% | 41% | Cmax [10]: 942 ng/mL; Tmax [11]: 4.02 min; AUC(0-t) at 4 h [12]: 587 ng·h/mL; half-life [13]: 156 min; CL/F [14]: 363 mL/min/kg; concentration at 4 h [15]: 85 ng/mL
5 | 19 µg/mL (≈ 83.2 µM) | 2.9 | 23.2 min | 29.9 µL/min | < 7.5 min | > 184.8 µL/min | Oc1ccc(/C=C/c2cc(O)cc(O)c2)cc1 [RESVERATROL] |  | 20% | 30% | 46% | Cmax [20]: 76.7 ng/mL; Cmax [21]: 176 ng/mL; Cmax [22]: 273 ng/mL; Tmax [23]: 4.98 min; AUC(0-t) [24]: 47.5 ng·h/mL; half-life [25]: 11.4 min; CL/F [26]: 6820 mL/min/kg; Drug metabolism [27]: Metabolite_Detected; Drug metabolism [28]: Metabolite_Detected
